# According to BindingDB's records for patent US11198695 (SHIONOGI & CO., LTD., 2021):
# Target: 2-acylglycerol O-acyltransferase 2 (Homo sapiens, UniProt Q3SYC2)
# Assay: Inhibitory Activity
# Protocol: Solutions of the compounds of the present invention in DMSO were each aliquoted into 0.2-μL portions in a 384-well polystyrene microplate produced by Corning Incorporated, and 5 μL of an enzyme solution prepared with an assay buffer (100 mmol/L phosphate buffer (pH 7.4) containing 2 mmol/L DTT) and 5 μL of a substrate solution (100 mmol/L phosphate buffer (pH 7.4), 30 μmol/L 2-Oleoylglycerol, 10 μmol/L Oleoyl-CoA) were added thereto, and the resultant was stirred and centrifuged, and incubated in a moist chamber at room temperature for 1 hour. After enzymatic reaction, 50 μL of a quenching solution (containing 0.2 μmol/L Diolein-d5, 0.4% formic acid, and 50% isopropanol) containing Internal Standard (IS) was added to terminate the reaction, and the resultant was sealed in a plate produced by Shimadzu GLC Ltd., and then stirred and centrifuged, and measurement was performed by using an electrospray ionization method with a RapidFire360 and Agilent 6550 Q-TOF mass spectrometer. Diolein as a reaction product (P) of 2-Oleoylglycerol as the substrate and an ammonium adduct ion of the IS were detected, and the peak intensity ratio, P/IS, was calculated from the peak heights to evaluate the inhibitory activity. Inhibitory activities with/without addition of enzyme were defined as Control (+)/Control (−), respectively, and the respective % inhibitions were defined as 0% inhibition and 100% inhibition. The inhibitory activity was calculated from formula below with TIBCO Spotfire (produced by TIBCO Software Inc.):Inhibitory activity (%)=[1−{Sample−Control(−)}/{Control(+)−Control(−)}]*100where Sample indicates a peak intensity ratio: P/IS, when the compound of the present invention was added.
# 2-acylglycerol O-acyltransferase 2, sequence (Q3SYC2 whole entry): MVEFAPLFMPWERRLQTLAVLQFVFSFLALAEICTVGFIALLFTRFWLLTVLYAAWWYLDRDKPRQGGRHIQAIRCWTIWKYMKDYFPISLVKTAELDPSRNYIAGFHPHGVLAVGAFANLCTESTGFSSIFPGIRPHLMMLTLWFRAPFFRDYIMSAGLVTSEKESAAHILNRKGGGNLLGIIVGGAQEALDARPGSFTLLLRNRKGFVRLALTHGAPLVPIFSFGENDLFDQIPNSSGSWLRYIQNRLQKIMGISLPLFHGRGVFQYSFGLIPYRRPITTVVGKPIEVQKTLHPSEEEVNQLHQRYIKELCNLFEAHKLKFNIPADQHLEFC
row,IC50,SMILES
1,0.026 µM,"COc1ccc(-n2nc3c(c2NC(=O)CS(C)(=O)=O)C(=O)N[C@]2(CCc4cc(OCC(F)(F)F)ccc42)C3)cc1 [US11198695, Example I-268]"
2,0.0121 µM,"C#Cc1ccc(-n2nc3c(c2C(=O)NS(=O)(=O)C2CC2)C(=O)N[C@@]2(CCc4cc(OCC(F)(F)F)ccc42)C3)nc1 [US11198695, Example II-201]"
3,< 0.001 µM,"CS(=N)(=O)CC(=O)Nc1c2c(nn1-c1ccc(C(F)F)nn1)C[C@]1(CCc3cc(OCC(F)(F)F)ccc31)NC2=O (stereo partly drawn) [US11198695, Example II-281]"
